# Results as given in patent US20030119719A1, “Use of endothelin conjugates in therapy, new endothelin conjugates, agents that contain the latter, and process for their production” (priority 1996, published 2003).
# Key:
# common carotid artery = experiment: Local application via administration catheter in the denuded common carotid artery, dynamic scintigraphy and autoradiography; conditions: for course of the locally administered activity at the administration site after blood flow is restored: examination period of 1 hour, dynamic scintigrams, right common carotid artery
# Excerpt: b) Local Application of the Tc-99m Complex of NH2-Asp-Gly-Gly-Cys-Gly-Cys-Phe-(D-Trp)-Leu-Asp-Ile-Ile-Trp-OH as well as Tc-99m-pertechnetate in the Common Carotid Artery of White New Zealand Rabbits
# In anesthetized white New Zealand rabbits (3.5 kg), the right common carotid artery was opened up. A 2 F balloon catheter (from the Baxter Company) was inserted cranially through a cut, and a vascular area approximately 5 cm long was denuded twice with 0.9% saline after the catheter was inflated. Then, an administration catheter (coronary perfusion/infusion catheter, dispatch 3.0, Baxter Company) was fed to the above-denuded area. […] Then, the catheter was removed, and the blood flow after closure of the common carotid artery dextra was restored using a suture. Dynamic scintigrams were prepared over a period of 1 hour with the aid of a commercial gamma camera. Then, the animals were sacrificed, both carotids were removed, and an autoradiography was prepared.
# arteriosclerotic plaque = experiment: In vivo and in vitro concentration in WHHL rabbits (gamma camera imaging, autoradiography of the aorta); conditions: 2 mCi (1 ml) via an ear vein
# Protocol: In Vivo and In Vitro Concentration of the ^99mTc-Complex of […] in WHHL Rabbits 2 mCi (1 ml) of the […]Tc-complex that is produced according to 5a) is administered to an anesthetized WHHL rabbit (Rompun/Ketavet 1:2) via an ear vein. WHHL rabbits have a high LDL level in the blood because of a deficient or defective LDL receptor and therefore create spontaneously arteriosclerotic vascular alterations. During the test period of 5 hours after the administration, static images of various exposure times and of various positions were produced with a gamma camera ([…]). 5 hours after the administration, the rabbit was sacrificed, and both an autoradiography of the aorta and a Sudan III coloring were carried out.
Compound,site of accumulation after being flushed from the vessel wall (common carotid artery; anterior summation scintigram 0-1 hour after local administration (FIG. 1)),course of the locally administered activity at the administration site after blood flow is restored (common carotid artery),course of the locally administered activity at the administration site after blood flow is restored (common carotid artery; listed as Tc-99m-pertechnetate),time at which arteriosclerotic plaque in the area of the aortic arch could be visualized in vivo (arteriosclerotic plaque)
[O]=[99Tc](=[O])(=[O])[O-] [Tc-99m pertechnetate],accumulates in the salivary glands as well as the thyroid,flushed from the vessel directly after the blood flow was regenerated,flushed from the vessel wall immediately after the blood flow is restored,–
^99mTc Complex of Asp-Gly-Gly-Cys-Gly-Cys-Phe-(D-Trp)-Leu-Asp-Ile-Ile-Trp,–,–,–,10 minutes p.i.
